From US7488740B2, “Substituted quinolin-4-ylamine analogues” (Neurogen Corporation, priority 2003, dated 2009)

Target: T1, human capsaicin receptor (Homo sapiens, UniProt Q8NER1)
T1 construct: A cDNA encoding full length human capsaicin receptor recited in U.S. Pat. No. 6,482,611 was subcloned in the plasmid pBK-CMV; expressed in transfected cells
Assay: Calcium mobilization assay (Example 6)
Format: cell-based
Conditions: concentration required to provide a 50% decrease in the fluorescence response of cells exposed to one IC50 of capsaicin
How it was run: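 HEK293 clonal lines stably expressing full-length human capsaicin receptor, Fluo-3 AM loaded in KRH buffer pH 7.4. Compounds (final 1-5 μM) preincubated 0.5-6 h at room temperature in the dark, then capsaicin added at its predetermined IC50 concentration. FLIPR calcium signal at 30-60 s; IC50 = antagonist concentration giving 50% decrease.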

T1 sequence (Q8NER1 whole entry): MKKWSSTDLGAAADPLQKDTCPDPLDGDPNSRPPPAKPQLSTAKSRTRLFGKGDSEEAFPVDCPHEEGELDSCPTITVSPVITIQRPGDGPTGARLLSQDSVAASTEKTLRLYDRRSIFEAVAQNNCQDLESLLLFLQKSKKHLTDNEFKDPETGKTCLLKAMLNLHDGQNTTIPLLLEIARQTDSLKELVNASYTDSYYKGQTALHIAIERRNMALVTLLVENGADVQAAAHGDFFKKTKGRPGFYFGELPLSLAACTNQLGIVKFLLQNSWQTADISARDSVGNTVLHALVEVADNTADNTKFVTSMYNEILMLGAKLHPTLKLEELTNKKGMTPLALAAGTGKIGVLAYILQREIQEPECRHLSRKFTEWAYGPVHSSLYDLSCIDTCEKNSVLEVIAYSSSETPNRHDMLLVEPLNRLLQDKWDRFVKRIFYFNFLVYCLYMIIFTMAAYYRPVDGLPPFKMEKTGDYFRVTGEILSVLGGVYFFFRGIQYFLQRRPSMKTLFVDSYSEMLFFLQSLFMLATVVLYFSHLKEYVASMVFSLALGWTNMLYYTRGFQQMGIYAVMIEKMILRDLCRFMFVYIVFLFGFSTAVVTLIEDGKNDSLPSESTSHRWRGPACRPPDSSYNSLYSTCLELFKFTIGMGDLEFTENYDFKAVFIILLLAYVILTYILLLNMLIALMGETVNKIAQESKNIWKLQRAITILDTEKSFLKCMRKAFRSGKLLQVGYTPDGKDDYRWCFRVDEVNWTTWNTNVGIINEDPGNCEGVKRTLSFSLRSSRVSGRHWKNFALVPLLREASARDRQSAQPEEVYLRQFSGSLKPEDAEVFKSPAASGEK

SMILES	IC50 [nM]
Cc1ccc(Nc2ccnc3nc(-c4ncccc4C(F)(F)F)ccc23)nc1 [Compound 140, N-(5-methylpyridin-2-yl)-7-[3-(trifluoromethyl)pyridin-2-yl]-1,8-naphthyridin-4-amine]	≤ 1000
CC(=O)c1ccc(Nc2ccnc3nc(-c4ncccc4C(F)(F)F)ccc23)nc1 [Compound 141, 1-[6-({7-[3-(trifluoromethyl)pyridin-2-yl]-1,8-naphthyridin-4-yl}amino)pyridin-3-yl]ethanone]	≤ 1000
FC(F)(F)c1ccc(Nc2ccnc3nc(-c4ncccc4C(F)(F)F)ccc23)cn1 [Compound 142, 7-[3-(trifluoromethyl)pyridin-2-yl]-N-[6-(trifluoromethyl)pyridin-3-yl]-1,8-naphthyridin-4-amine]	≤ 1000
CCc1ccc(Nc2ccnc3nc(-c4ncccc4C(F)(F)F)ccc23)nc1 [Compound 143, N-(5-ethylpyridin-2-yl)-7-[3-(trifluoromethyl)pyridin-2-yl]-1,8-naphthyridin-4-amine]	≤ 1000
Cc1cccnc1-c1ccc2c(Nc3cnc(C(F)(F)F)cn3)ccnc2n1 [Compound 144, 7-(3-methylpyridin-2-yl)-N-[5-(trifluoromethyl)pyrazin-2-yl]-1,8-naphthyridin-4-amine]	≤ 1000
FC(F)(F)c1cnc(Nc2ccnc3nc(-c4ncccc4Cl)ccc23)nc1 [Compound 145, 7-(3-chloropyridin-2-yl)-N-[5-(trifluoromethyl)pyrimidin-2-yl]-1,8-naphthyridin-4-amine]	≤ 1000

Continued, values first:

IC50 [nM]	SMILES
≤ 1000	Cc1cccnc1-c1ccc2c(Nc3ncc(C(F)(F)F)cn3)ccnc2n1 [Compound 137, 7-(3-methylpyridin-2-yl)-N-[5-(trifluoromethyl)pyrimidin-2-yl]-1,8-naphthyridin-4-amine]
≤ 1000	FC(F)(F)c1cnc(Nc2ccnc3nc(-c4ncccc4Cl)ccc23)cn1 [Compound 138, 7-(3-chloropyridin-2-yl)-N-[5-(trifluoromethyl)pyrazin-2-yl]-1,8-naphthyridin-4-amine]
≤ 1000	FC(F)(F)c1cccnc1-c1ccc2c(Nc3ccc(Cl)cn3)ccnc2n1 [Compound 139, N-(5-chloropyridin-2-yl)-7-[3-(trifluoromethyl)pyridin-2-yl]-1,8-naphthyridin-4-amine]
